Test results taken from publication PMC3465774, “Plant odorants interfere with detection of sex pheromone signals by male Heliothis virescens” (Frontiers in Cellular Neuroscience, 2012).

Molecular target: T1, HR13 (Heliothis virescens, UniProt Q6A1K1)
T1 construct: stably expressed, tetracycline-induced, in Flp-In T-REx293/Galpha15 (HEK293) cells; no Orco mentioned
T1 sequence (Q6A1K1 1-425): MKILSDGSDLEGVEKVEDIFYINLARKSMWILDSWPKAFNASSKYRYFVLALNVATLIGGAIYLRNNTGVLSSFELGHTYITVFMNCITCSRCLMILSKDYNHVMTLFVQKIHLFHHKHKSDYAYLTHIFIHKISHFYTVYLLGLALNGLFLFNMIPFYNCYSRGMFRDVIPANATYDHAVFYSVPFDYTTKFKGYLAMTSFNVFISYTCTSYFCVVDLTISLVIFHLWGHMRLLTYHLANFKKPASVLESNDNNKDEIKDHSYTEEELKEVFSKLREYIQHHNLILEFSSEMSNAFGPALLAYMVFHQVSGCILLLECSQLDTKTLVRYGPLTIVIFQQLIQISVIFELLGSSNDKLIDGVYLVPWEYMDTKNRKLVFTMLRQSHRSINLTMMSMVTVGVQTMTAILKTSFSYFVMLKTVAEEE
Assay: fura-2 calcium imaging, mixture with Z11-16:Ald
Type: cell-based
Details: inhibitor of response to 1 nM Z11-16:Ald; no agonism at 100 nM; competitive or allosteric not resolved

C=CC(C)(O)CCC=C(C)C (stereo not shown) [linalool]
F/F0 of mixture (1, 10, 100 nM): linalool reduced the pheromone-induced calcium response of HR13 cells in a dose-dependent manner
